According to ChEMBL document CHEMBL1275561, “In vitro activities of doripenem, a new broad-spectrum carbapenem, against recently collected clinical anaerobic isolates, with emphasis on the Bacteroides fragilis group” (2008):

Test system: Clostridium perfringens
Test: Antimicrobial activity against Clostridium perfringens assessed as resistant isolates by agar dilution method
Format: functional

SMILES	Activity [%]
C[C@@H](O)[C@H]1C(=O)N2C(C(=O)O)=C(S[C@@H]3CN[C@H](CNS(N)(=O)=O)C3)[C@H](C)[C@H]12 [DORIPENEM]	0
CCN1CCN(C(=O)N[C@@H](C(=O)N[C@@H]2C(=O)N3[C@@H]2SC(C)(C)[C@@H]3C(=O)O)c2ccccc2)C(=O)C1=O [PIPERACILLIN]	0
C[C@@H](O)[C@H]1C(=O)N2C(C(=O)O)=C(SCCNC=N)C[C@H]12 [IMIPENEM ANHYDROUS]	0
CO[C@@]1(NC(=O)Cc2cccs2)C(=O)N2C(C(=O)O)=C(COC(N)=O)CS[C@@H]21 [CEFOXITIN]	0
C[C@@H](O)[C@H]1C(=O)N2C(C(=O)O)=C(S[C@@H]3CN[C@H](C(=O)Nc4cccc(C(=O)O)c4)C3)[C@H](C)[C@H]12	0
C[C@@H](O)[C@H]1C(=O)N2C(C(=O)O)=C(S[C@@H]3CN[C@H](C(=O)N(C)C)C3)[C@H](C)[C@H]12 [MEROPENEM]	0
CCC[C@@H]1C[C@@H](C(=O)N[C@@H]([C@H]2O[C@H](SC)[C@H](O)[C@@H](O)[C@H]2O)[C@H](C)Cl)N(C)C1 [CLINDAMYCIN]	0
CC(=O)NC[C@H]1CN(c2ccc(N3CCOCC3)c(F)c2)C(=O)O1 [LINEZOLID]	0
CN[C@H](CC(C)C)C(=O)N[C@H]1C(=O)N[C@@H](CC(N)=O)C(=O)N[C@H]2C(=O)N[C@H]3C(=O)N[C@H](C(=O)N[C@H](C(=O)O)c4cc(O)cc(O)c4-c4cc3ccc4O)[C@H](O)c3ccc(c(Cl)c3)Oc3cc2cc(c3O[C@@H]2O[C@H](CO)[C@@H](O)[C@H](O)[C@H]2O[C@H]2C[C@](C)(N)[C@H](O)[C@H](C)O2)Oc2ccc(cc2Cl)[C@H]1O [VANCOMYCIN]	0
Cc1ncc([N+](=O)[O-])n1CCO [METRONIDAZOLE]	7.8
CC1(C)S[C@@H]2[C@H](NC(=O)[C@H](N)c3ccccc3)C(=O)N2[C@H]1C(=O)O [AMPICILLIN]	0
